The assay deals with patients with chronic hepatitis C who had developed anemia due to ribavirin/IFN α combination therapy. Format: in vivo, human. The settings on record: average of 6 cases; p < 0.05 vs. before EPA administration (10.8 g/dL). The procedure: After the onset of anemia, each patient received 600 mg of EPA-E (trade name: Epadel, manufactured by Mochida Pharmaceutical Co., Ltd.) three times a day by oral administration every after meal for 2 months. Depending on the disease cases, the time of starting the administration of EPA-E varied within the range from 1 to 4 months after the start of administration of ribavirin/IFN α. In the ribavirin/IFN α combination therapy, ribavirin (trade name: Rebetol, manufactured by Schering-Plough Corporation) was orally administered to each patient of over 60 kg in body weight at a dose of 400 mg every after morning meal and every after evening meal as well, and to each patient of 60 kg or less at a dose of 200 mg every after morning meal and 400 mg every after evening meal. Simultaneously, 6 million IU a day of IFN α-2b (trade name: Intron A, manufactured by Schering-Plough Corporation) was intramuscularly administered everyday for two weeks, followed by intermittent administration of three times a week for 22 weeks.

Marks after values point to notes of the source that are not given here.

For `CC/C=C\C/C=C\C/C=C\C/C=C\C/C=C\CCCC(=O)OCC` [EPA, eicosapentaenoic acid ethyl ester], the “Hemoglobin level, average, after EPA administration for one month” value is 11.4* g/dL and the “Hemoglobin level, average, after EPA administration for two months” value is recorded as 11.5* g/dL.

The values above are taken from US20060088502A1, “Drug for reducing side effects in ribavirin interferon combination therapy” (priority 2003, published 2006).
